{
  "source": "patent US8298781B2",
  "about": "“Compositions and methods for characterizing and regulating olfactory sensation” (Duke University, priority 2007, dated 2012)",
  "target": "T1, OR7D4 S84N (Homo sapiens, UniProt Q8NG98, S84N)",
  "T1 sequence (Q8NG98 1-312 S84N)": "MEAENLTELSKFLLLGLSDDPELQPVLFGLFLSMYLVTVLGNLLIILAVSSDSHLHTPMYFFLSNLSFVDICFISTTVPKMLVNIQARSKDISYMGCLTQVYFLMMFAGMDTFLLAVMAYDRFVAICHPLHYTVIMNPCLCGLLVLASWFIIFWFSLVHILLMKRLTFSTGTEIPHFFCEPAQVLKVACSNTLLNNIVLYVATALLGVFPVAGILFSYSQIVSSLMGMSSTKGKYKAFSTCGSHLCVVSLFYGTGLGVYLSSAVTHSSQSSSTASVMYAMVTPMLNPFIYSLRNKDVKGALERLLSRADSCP",
  "experiment": "Luciferase assay dose response, OR7D4 S84N",
  "assay_type": "cell-based",
  "conditions": "exceeding the activity of RT variant at every concentration tested",
  "from_the_text": "Heterologous expression of human odorant receptors. 423 human odorant receptors including 337 predicted functional receptors were cloned. Odorant receptors that contained the first 20 amino acid of human rhodopsin (see, e.g., Krautwurst, D., et al., Cell 95, 917-926 (1998); herein incorporated by reference in its entirety) in pCl (Promega) were expressed in the Hana3A cell line along with a short form of mRTP1, RTP1S, (M37 to the C-terminal end), which enhanced functional expression of the odorant receptors. For immunocytochemistry, cells were fixed, permeabilized and incubated with monoclonal anti-rhodopsin antibody, 4D2 (see, e.g., Laird, D. W., et al., Invest Opthalmol Vis Sci 29.419428 (1988); herein incorporated by reference in its entirety), followed by Cy3-conjugated donkey anti-mouse IgG (Jackson Immunologicals). […]\nLuciferase assay and data analysis. […] Luminescence was measured using Wallac Victor 1420 (Perkin-Elmer). Normalized luciferase activity was calculated by the formula [luc(N)-luc(lowest)]/luc(highest)/RL (N) where luc(N)=luminescence of luciferase of a certain well; luc(lowest)=lowest luminescence of luciferase of a plate or a set of plates; luc(highest)=highest luminescence of luciferase of a plate or a set of plates; RL(N)=luminescence of Renilla luciferase of a certain well. Data was analyzed with Microsoft Excel and GraphPad Prism 4.",
  "data": [
    {"smiles": "C[C@@]12C=CC[C@H]1[C@@H]1CCC3=CC(=O)CC[C@]3(C)[C@H]1CC2", "note": "[androstadienone, androsta-4,16-dien-3-one]", "values": [
      {"measurement": "dose-response sensitivity of OR7D4 S84N in vitro", "value": "remarkable sensitivity"}
    ]},
    {"smiles": "C[C@]12CCC(=O)C[C@@H]1CC[C@@H]1[C@@H]2CC[C@]2(C)C=CC[C@@H]12", "note": "[androstenone, 5α-androst-16-en-3-one]", "values": [
      {"measurement": "dose-response sensitivity of OR7D4 S84N in vitro", "value": "remarkable sensitivity"}
    ]}
  ]
}
